{"source": "PubChem BioAssay AID1963847", "about": "(Molecular Pharmacology Branch, DTP, NCI, 2024);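 further: spheroids exposed to compounds for one week before readout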;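 on viability, T/C: luminescence used as stand-in measure of viable cells; 100% = DMSO vehicle control viability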", "system": "415267-285-R-J2-PDC complex spheroid viability", "assay": "Anticancer human tumor 415267-285-R-J2-PDC patient-derived breast carcinoma cell line growth inhibition [POLQ]", "settings": "for IC50: curve of first compound; for viability, T/C: stronger effect = lower value", "summary_of_the_method": "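PDC + HUVEC + MSC complex spheroids; POLQ inhibitors ± partner drugs; top conc. at/near clinical Cmax, else 10 microM (SN-38 1 microM), half-log dilutions; 37 degrees C, 5% CO2.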"}
{"smiles": "CC(=O)O[C@H]1C(=O)[C@@]2(C)[C@H]([C@H](OC(=O)c3ccccc3)[C@]3(O)C[C@H](OC(=O)[C@H](O)[C@@H](NC(=O)c4ccccc4)c4ccccc4)C(C)=C1C3(C)C)[C@]1(OC(C)=O)CO[C@@H]1C[C@@H]2O", "note": "+ Nc1ccc(C#CCN(C(=O)Cc2ncc(C(F)(F)F)cc2C(F)(F)F)c2ccc(F)cc2)nn1", "values": [{"measurement": "IC50", "setting": "second compound 0.0316 µM", "value": "< 9.49", "unit": "nM"}, {"measurement": "IC50", "setting": "second compound 0.1 µM", "value": "< 9.49", "unit": "nM"}, {"measurement": "IC50", "setting": "second compound 0.316 µM", "value": "< 9.49", "unit": "nM"}, {"measurement": "IC50", "setting": "second compound 1 µM", "value": "< 9.49", "unit": "nM"}, {"measurement": "IC50", "setting": "second compound 3.16 µM", "value": "< 9.49", "unit": "nM"}, {"measurement": "IC50", "setting": "second compound 10 µM", "value": "< 9.49", "unit": "nM"}, {"measurement": "viability, T/C", "setting": "second compound 0.0316 µM, first compound 0.00949 µM", "value": 16.4, "unit": "%"}, {"measurement": "viability, T/C", "setting": "second compound 0.0316 µM, first compound 0.03 µM", "value": 11.2, "unit": "%"}, {"measurement": "viability, T/C", "setting": "second compound 0.0316 µM, first compound 0.0949 µM", "value": 7.8, "unit": "%"}, {"measurement": "viability, T/C", "setting": "second compound 0.0316 µM, first compound 0.3 µM", "value": 12.3, "unit": "%"}, {"measurement": "viability, T/C", "setting": "second compound 0.0316 µM, first compound 0.949 µM", "value": 7.65, "unit": "%"}, {"measurement": "viability, T/C", "setting": "second compound 0.0316 µM, first compound 3 µM", "value": 9.67, "unit": "%"}, {"measurement": "viability, T/C", "setting": "second compound 0.1 µM, first compound 0.00949 µM", "value": 28.2, "unit": "%"}, {"measurement": "viability, T/C", "setting": "second compound 0.1 µM, first compound 0.03 µM", "value": 10.1, "unit": "%"}, {"measurement": "viability, T/C", "setting": "second compound 0.1 µM, first compound 0.0949 µM", "value": 7.84, "unit": "%"}, {"measurement": "viability, T/C", "setting": "second compound 0.1 µM, first compound 0.3 µM", "value": 8.82, "unit": "%"}, {"measurement": "viability, T/C", "setting": "second compound 0.1 µM, first compound 0.949 µM", "value": 5.94, "unit": "%"}, {"measurement": "viability, T/C", "setting": "second compound 0.1 µM, first compound 3 µM", "value": 7.04, "unit": "%"}, {"measurement": "viability, T/C", "setting": "second compound 0.316 µM, first compound 0.00949 µM", "value": 25.4, "unit": "%"}, {"measurement": "viability, T/C", "setting": "second compound 0.316 µM, first compound 0.03 µM", "value": 10.4, "unit": "%"}, {"measurement": "viability, T/C", "setting": "second compound 0.316 µM, first compound 0.0949 µM", "value": 8.11, "unit": "%"}, {"measurement": "viability, T/C", "setting": "second compound 0.316 µM, first compound 0.3 µM", "value": 6.83, "unit": "%"}, {"measurement": "viability, T/C", "setting": "second compound 0.316 µM, first compound 0.949 µM", "value": 6.61, "unit": "%"}, {"measurement": "viability, T/C", "setting": "second compound 0.316 µM, first compound 3 µM", "value": 9.16, "unit": "%"}, {"measurement": "viability, T/C", "setting": "second compound 1 µM, first compound 0.00949 µM", "value": 17.4, "unit": "%"}, {"measurement": "viability, T/C", "setting": "second compound 1 µM, first compound 0.03 µM", "value": 9.17, "unit": "%"}, {"measurement": "viability, T/C", "setting": "second compound 1 µM, first compound 0.0949 µM", "value": 6.64, "unit": "%"}, {"measurement": "viability, T/C", "setting": "second compound 1 µM, first compound 0.3 µM", "value": 8.77, "unit": "%"}, {"measurement": "viability, T/C", "setting": "second compound 1 µM, first compound 0.949 µM", "value": 7.65, "unit": "%"}, {"measurement": "viability, T/C", "setting": "second compound 1 µM, first compound 3 µM", "value": 7.96, "unit": "%"}, {"measurement": "viability, T/C", "setting": "second compound 3.16 µM, first compound 0.00949 µM", "value": 14.3, "unit": "%"}, {"measurement": "viability, T/C", "setting": "second compound 3.16 µM, first compound 0.03 µM", "value": 10, "unit": "%"}, {"measurement": "viability, T/C", "setting": "second compound 3.16 µM, first compound 0.0949 µM", "value": 8.75, "unit": "%"}, {"measurement": "viability, T/C", "setting": "second compound 3.16 µM, first compound 0.3 µM", "value": 6.53, "unit": "%"}, {"measurement": "viability, T/C", "setting": "second compound 3.16 µM, first compound 0.949 µM", "value": 7.79, "unit": "%"}, {"measurement": "viability, T/C", "setting": "second compound 3.16 µM, first compound 3 µM", "value": 7.72, "unit": "%"}, {"measurement": "viability, T/C", "setting": "second compound 10 µM, first compound 0.00949 µM", "value": 13.3, "unit": "%"}, {"measurement": "viability, T/C", "setting": "second compound 10 µM, first compound 0.03 µM", "value": 9.57, "unit": "%"}, {"measurement": "viability, T/C", "setting": "second compound 10 µM, first compound 0.0949 µM", "value": 8.39, "unit": "%"}, {"measurement": "viability, T/C", "setting": "second compound 10 µM, first compound 0.3 µM", "value": 9.61, "unit": "%"}, {"measurement": "viability, T/C", "setting": "second compound 10 µM, first compound 0.949 µM", "value": 8.58, "unit": "%"}, {"measurement": "viability, T/C", "setting": "second compound 10 µM, first compound 3 µM", "value": 8.25, "unit": "%"}]}
